PMC4710522, “A Novel Triazolopyridine-Based Spleen Tyrosine Kinase Inhibitor That Arrests Joint Inflammation” (PLoS ONE, 2016)
Blank lines part the entries; values can stand above or below the molecule they belong to.

Key:
[1] = test system: Tel-Syk expressing BaF3 cells; experiment: Tel-Syk BaF3 viability assay (growth factor-independent growth); format: cell-based, murine; details: Tel-Syk BaF3, absence of IL-3
Procedure: HEK293 T-REx™ (Life Technologies, Grand Island, NY) stably transfected with human TEL-Syk (cloned as described prior section DNA constructs) were plated on black poly-D-lysine coated 96-well plates (BD Biosciences, San Diego, CA) in culture media containing tetracycline-free fetal bovine serum (Clontech, MountainView, CA) for 16 hours in a tissue culture incubator. Tel-Syk expression was induced for 6 hours in fresh growth media containing 1 μg/ml tetracycline (Sigma Chemicals, St. Louis, MO). Plates were preincubated with CC-509 for 90 minutes, fixed immediately with 4% formaldehyde in 1X PBS for 20 min at room temperature, and washed/permeabilized 5-times with PBS containing 0.1% Triton X-100. Plates were blocked with Odyssey Blocking Buffer for 90 minutes at room temperature and incubated overnight at 4°C on a rotating platform with rabbit phospho-Syk (1:1000) and mouse V5 (1:2500) primary antibodies diluted in Odyssey Blocking Buffer. […] Viability of BaF/3 cells expressing Tel-Syk grown in the absence of murine IL-3 was measured using Cell-Titer Glo reagent (Promega, Madison, WI), as described by supplier.

[2] = parameters: method as in PMID 19096013; details: chronic and refractory ITP; cited from earlier work
[3] = test system: proinflammatory analytes in paw tissue; experiment: inflammatory cytokines measured in the paw, rat CIA; format: in vivo; details: day 18; CC-509 all dose levels p<0.01; indomethacin p<0.05
Procedure: Following the last administration of CC-509, paw samples were collected and processed for cytokine and chemokine analysis (Aushon Biosciences, Billerica, MA). Briefly paws were snap-frozen and pulverized in liquid nitrogen followed by addition of cell signal lysis buffer in the presence of protease and phosphatase inhibitors (Sigma Chemicals, St. Louis, MO). Samples were homogenized on high speed for 30 seconds, incubated on ice for 20 minutes then sonicated at high intensity for 1 minute. Samples were spun at high speed and supernatants were collected for cytokine analysis.

[4] = test system: rat collagen-induced arthritis model; experiment: rat collagen-induced arthritis (CIA) model, paw swelling; format: in vivo; details: Indomethacin 2 mg/kg oral, p<0.01
Procedure: Female Lewis rats (150 – 170g; Charles River Laboratories) were house standard shoebox cages, fed Harlan-Tekald diet and water ad libitum and maintained on a 12h light/dark cycle. For induction of arthritis rats were anesthetized with isofluorane and their entire dorsal area shaved. Rats were injected (intradermal) with 100 μl of equal volumes of collagen (Chrondrex, Redmond, WA) and IFA (Sigma Chemicals, St. Louis, MO) emulsion in 10 sites across the dorsal region. At disease onset 11 days following immunization animals were randomized into groups based on their ankle measurements and test article administration was initiated. Rats were dosed orally with vehicle (20% Captisol®), Indomethacin (Sigma Chemicals, St. Louis, MO, 2mg/kg) or CC-509 (15, 25mg/kg QD or 15mg/kg BID) in a dose volume of 5ml/kg. […] On the last day of the study animals were split into 2 cohorts and bleed twice via tail bleed under isofluorane anesthesia and a third terminal bleed following CO2 asphyxiation to obtain a time course of plasma compound exposure at 30minutes, 1, 2, 4, 8 and 24h after the last dose of CC-509.
For the TEL-Syk assay, the intensity values for the 700 and 800 channel were exported as text files in ActivityBase (IDBS, Guildford, UK) to derive the ratios that reflect kinase activity. For LAD2 experiments, enzyme activity values were exported as text files into ActivityBase to calculate “percent release” according to the formula: 100* supernatant OD405/ (supernatant OD405 + (pellet OD405*pellet dilution factor)). For the basophil and B-cells assays, flow cytometry data was exported from the FACS Array and processed using FloJo software package (TreeStar, Inc., Ashland, Oregon). For the JAK2 HEL and Ramos NFAT β-lactamase assays, the fluorescence values obtained at 460 nm and 530 nm were exported into ActivityBase to calculate response ratios. For the neutrophil, macrophage, KDR, and JAK1/3 assays, raw values were exported into ActivityBase to calculate percent inhibition. All IC50 calculations were generated using XLfit (IDBS, Guildford, UK) algorithm 205 within Excel. For PCA, the OD from the saline injected site was subtracted from the OD from the anti-DNP IgE injected site. Evans blue dye extravasation was expressed as mean ± SEM and % inhibition for the test article groups was normalized to the cromolyn positive control. For the CIA model paw measurements (left and right ankle diameter) were taken for each individual animal and averaged. The mean data from each group was plotted and either the AUC(day 11–18) or % inhibition on day 18 was calculated. Data is expressed as mean ± SEM of each group with n = 6–12. Statistical analysis was performed with Prism Graphpad using one-way ANOVA followed by Dunnett’s comparison using the vehicle group as the control or for measurements over time a 2 way ANOVA followed by a Dunnett’s multiple comparison test. Statistical significance was deemed as * = p<0.05, **p<0.01, ***p<0.001 and p<0.0001.

[5] = test system: rat passive cutaneous anaphylaxis model; experiment: rat passive cutaneous anaphylaxis (PCA) model; format: in vivo; details: positive control cromolyn 100 mg/kg IV, p<0.001
Procedure: On day 0, male CD-IGS rats (170 – 190g; Charles River Laboratories) were anesthetized with isofluorane, their dorsal region shaved and 50 μl Anti-DNP-IgE (Clone SPE-7, Sigma, St. Louis, MO) that had been diluted 1:1000 in saline was injected via the intradermal route at 3 individual spots along the right side of the back. Saline was injected via the intradermal route at 3 individual spots along the left side of the back as a sham control. Twenty-four hours later, 200 μl of BSA-DNP (Calbiochem, San Diego, CA), prepared (1 mg prepared in a 2% solution of Evans blue dye: Sigma Chemicals, St. Louis, MO) was injected via the IV route via the tail vein. Thirty minutes after the BSA-DNP challenge the experiment was terminated and skin samples from the middle of each injection site taken for Evans blue dye measurement at an OD measurement at 620nm on a plate reader following incubation (2h at 90°C) and homogenization in formamide (Sigma Chemicals, St. Louis, MO). Vehicle (20% Captisol® (Captisol), PO), the positive control (Cromolyn: Sigma Chemicals, St. Louis, MO 100mg/kg, 2mL/kg, IV) or CC0484509 (3 and 10mg/kg, PO) were dosed 1h prior to the IV challenge with BSA-DNP.
For the TEL-Syk assay, the intensity values for the 700 and 800 channel were exported as text files in ActivityBase (IDBS, Guildford, UK) to derive the ratios that reflect kinase activity. For LAD2 experiments, enzyme activity values were exported as text files into ActivityBase to calculate “percent release” according to the formula: 100* supernatant OD405/ (supernatant OD405 + (pellet OD405*pellet dilution factor)). For the basophil and B-cells assays, flow cytometry data was exported from the FACS Array and processed using FloJo software package (TreeStar, Inc., Ashland, Oregon). For the JAK2 HEL and Ramos NFAT β-lactamase assays, the fluorescence values obtained at 460 nm and 530 nm were exported into ActivityBase to calculate response ratios. For the neutrophil, macrophage, KDR, and JAK1/3 assays, raw values were exported into ActivityBase to calculate percent inhibition. All IC50 calculations were generated using XLfit (IDBS, Guildford, UK) algorithm 205 within Excel. For PCA, the OD from the saline injected site was subtracted from the OD from the anti-DNP IgE injected site. Evans blue dye extravasation was expressed as mean ± SEM and % inhibition for the test article groups was normalized to the cromolyn positive control. For the CIA model paw measurements (left and right ankle diameter) were taken for each individual animal and averaged. The mean data from each group was plotted and either the AUC(day 11–18) or % inhibition on day 18 was calculated. Data is expressed as mean ± SEM of each group with n = 6–12. […]

IC50 [1]: 2.24 ± 0.29 µM
SMILES: NCCNc1ncc(C(N)=O)c(Nc2cccc(C(F)(F)F)c2)n1 [Syk II inhibitor, reference compound]

SMILES: COc1cc(Nc2ncc(F)c(Nc3ccc4c(n3)N(COP(=O)(O)O)C(=O)C(C)(C)O4)n2)cc(OC)c1OC [fostamatinib]
patients with durable platelet responses [2]: 8/16

SMILES: COc1ccc2c(c1)c(CC(=O)O)c(C)n2C(=O)c1ccc(Cl)cc1 [indomethacin, reference compound]
MIP-1α in the paw [3]: significantly inhibited
inhibition of paw swelling [4]: 82%

SMILES: O=C(O)c1cc(=O)c2c(OCC(O)COc3cccc4oc(C(=O)O)cc(=O)c34)cccc2o1 [cromolyn, reference compound]
inhibition of skin edema compared to vehicle control group [5]: 79%
